Measured values as given in PubChem BioAssay AID256 (DTP/NCI, 2004).
Where “and” joins values, the source holds several entries; their conditions need not be identical. Equal entries are not always repeated. Toxic doses and inconclusive results are not listed.

Tested on: CD2F1 mice, L1210 leukemia ip, survival T/C
Assay: NCI In Vivo Anticancer Drug Screen. Data for tumor model L1210 Leukemia (intraperitoneal) in CD2F1 (CDF1) mice
Conditions: higher = longer survival
In short: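 Mice carrying a transplanted tumor received test compound or vehicle alone. The value is the measurement in the treated group divided by that in the vehicle-treated control group.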

[1] = endpoint: mean survival time, dose: 100.0 mg/kg/injection, schedule: Q01DX001 (ip), vehicle: saline with Tween-80
[2] = endpoint: mean survival time, dose: 200.0 mg/kg/injection, schedule: Q01DX001 (ip), vehicle: saline with Tween-80
[3] = endpoint: mean survival time, dose: 200.0 mg/kg/injection, schedule: Q04DX002 (ip), vehicle: saline with Tween-80
[4] = endpoint: mean survival time, dose: 400.0 mg/kg/injection, schedule: Q01DX001 (ip), vehicle: saline with Tween-80
[5] = endpoint: mean survival time, dose: 50.0 mg/kg/injection, schedule: Q01DX009 (ip), vehicle: saline with Tween-80
[6] = endpoint: mean survival time, dose: 100.0 mg/kg/injection, schedule: Q01DX009 (ip), vehicle: saline with Tween-80
[7] = endpoint: mean survival time, dose: 100.0 mg/kg/injection, schedule: Q04DX003 (ip), vehicle: saline with Tween-80
[8] = endpoint: mean survival time, dose: 200.0 mg/kg/injection, schedule: Q01DX009 (ip), vehicle: saline with Tween-80
[9] = endpoint: mean survival time, dose: 200.0 mg/kg/injection, schedule: Q04DX003 (ip), vehicle: saline with Tween-80
[10] = endpoint: mean survival time, dose: 400.0 mg/kg/injection, schedule: Q04DX003 (ip), vehicle: saline with Tween-80

Compound: COc1ccccc1N=Nc1c(O)n(-c2ccc(Cl)cc2)c(=S)n(-c2ccccc2)c1=O
- T/C [1]: 97 % of control
- T/C (endpoint: mean survival time, dose: 100.0 mg/kg/injection, schedule: Q04DX002 (ip), vehicle: saline with Tween-80): 98 % of control
- T/C [2]: 97 % of control
- T/C [3]: 94 % of control
- T/C [4]: 103 % of control
- T/C (endpoint: mean survival time, dose: 400.0 mg/kg/injection, schedule: Q04DX002 (ip), vehicle: saline with Tween-80): 102 % of control

Compound: C=CCNC(=O)C(O)C(O)C(=O)NCC=C (configuration not stated)
- T/C (endpoint: mean survival time, dose: 100.0 mg/kg/injection, schedule: Q01DX009 (ip), vehicle: acetone): 101 % of control
- T/C (endpoint: mean survival time, dose: 100.0 mg/kg/injection, schedule: Q04DX003 (ip), vehicle: acetone): 98 % of control
- T/C (endpoint: mean survival time, dose: 200.0 mg/kg/injection, schedule: Q01DX009 (ip), vehicle: acetone): 96 % of control
- T/C (endpoint: mean survival time, dose: 200.0 mg/kg/injection, schedule: Q04DX003 (ip), vehicle: acetone): 100 % of control
- T/C (endpoint: mean survival time, dose: 400.0 mg/kg/injection, schedule: Q01DX009 (ip), vehicle: acetone): 98 % of control
- T/C (endpoint: mean survival time, dose: 400.0 mg/kg/injection, schedule: Q04DX003 (ip), vehicle: acetone): 112 % of control

Compound: CCN=C(N)c1ncnnc1N
- T/C (endpoint: mean survival time, dose: 100.0 mg/kg/injection, schedule: Q01DX001 (ip), vehicle: carboxymethylcellulose (CMC)): 104 % of control
- T/C (endpoint: mean survival time, dose: 200.0 mg/kg/injection, schedule: Q01DX001 (ip), vehicle: carboxymethylcellulose (CMC)): 102 % of control
- T/C (endpoint: mean survival time, dose: 400.0 mg/kg/injection, schedule: Q01DX001 (ip), vehicle: carboxymethylcellulose (CMC)): 102 % of control

Compound: CC[C@@]1(OP(=O)(O)O)C(=O)OCc2c1cc1n(c2=O)Cc2cc3ccccc3nc2-1
- T/C (endpoint: median survival time, dose: 5.5 mg/kg/injection, schedule: Q04DX002 (ip), vehicle: water): 111 % of control and 112 % of control
- T/C (endpoint: median survival time, dose: 8.25 mg/kg/injection, schedule: Q04HX004 (iv), vehicle: water): 154 % of control
- T/C (endpoint: median survival time, dose: 11.0 mg/kg/injection, schedule: Q04DX002 (ip), vehicle: water): 119 % of control and 104 % of control
- T/C (endpoint: median survival time, dose: 16.5 mg/kg/injection, schedule: Q04HX004 (iv), vehicle: water): 158 % of control and 180 % of control
- T/C (endpoint: median survival time, dose: 33.0 mg/kg/injection, schedule: Q04HX004 (iv), vehicle: water): 177 % of control and 221 % of control
- T/C (endpoint: median survival time, dose: 44.0 mg/kg/injection, schedule: Q04DX002 (ip), vehicle: water): 158 % of control and 192 % of control
- T/C (endpoint: median survival time, dose: 44.0 mg/kg/injection, schedule: Q04HX004 (iv), vehicle: water): 207 % of control

Compound: C=CC1CC[N-]CC1.C=CC1CC[N-]CC1.C=CC1CC[N-]CC1.[Cl][Cr]([Cl])[Cl]
- T/C (endpoint: mean survival time, dose: 100.0 mg/kg/injection, schedule: Q04DX003 (ip), vehicle: saline): 102 % of control

Compound: N#CC(c1ccccn1)N1CCOCC1 (configuration not stated)
- T/C (endpoint: mean survival time, dose: 12.5 mg/kg/injection, schedule: Q04DX002 (ip), vehicle: saline with Tween-80): 97 % of control and 100 % of control
- T/C (endpoint: mean survival time, dose: 25.0 mg/kg/injection, schedule: Q04DX003 (ip), vehicle: saline with Tween-80): 104 % of control
- T/C (endpoint: mean survival time, dose: 50.0 mg/kg/injection, schedule: Q01DX001 (ip), vehicle: saline with Tween-80): 100 % of control
- T/C [5]: 89 % of control and 103 % of control
- T/C (endpoint: mean survival time, dose: 50.0 mg/kg/injection, schedule: Q04DX003 (ip), vehicle: saline with Tween-80): 109 % of control
- T/C [1]: 94 % of control
- T/C [6]: 89 % of control and 95 % of control
- T/C [7]: 107 % of control
- T/C [2]: 100 % of control
- T/C [3]: 98 % of control

Compound: Cc1cc(O)c(C(C)(C)C)cc1C(c1ccccc1)c1cc(C(C)(C)C)c(O)cc1C
- T/C [1]: 93 % of control
- T/C [2]: 93 % of control
- T/C [4]: 95 % of control

Compound: COc1ccc(-c2cc(C(=O)O)c3cccc(C)c3n2)cc1
- T/C [5]: 95 % of control
- T/C [6]: 95 % of control
- T/C [7]: 98 % of control
- T/C [8]: 95 % of control
- T/C [9]: 95 % of control

Compound: NN1CCOC1=O
- T/C [1]: 97 % of control
- T/C [2]: 100 % of control

Compound: CCOC1=C([N+](=O)[O-])C(c2ccccc2)NC1=O (configuration not stated)
- T/C [7]: 95 % of control
- T/C [9]: 95 % of control
- T/C [10]: 89 % of control

Compound: Cc1ccc(S(=O)(=O)N/N=C2/C=C3C/C(=N\NS(=O)(=O)c4ccc(C)cc4)C=C3C2)cc1
- T/C [5]: 93 % of control
- T/C [6]: 89 % of control
- T/C [8]: 89 % of control

Compound: Clc1ccc2ccccc2c1C(Cl)Cl
- T/C (endpoint: mean survival time, dose: 25.0 mg/kg/injection, schedule: Q01DX009 (ip), vehicle: saline with Tween-80): 96 % of control
- T/C [5]: 95 % of control
- T/C [6]: 98 % of control
- T/C [7]: 91 % of control
- T/C [8]: 102 % of control
- T/C [9]: 98 % of control
- T/C (endpoint: mean survival time, dose: 400.0 mg/kg/injection, schedule: Q01DX009 (ip), vehicle: saline with Tween-80): 102 % of control
- T/C [10]: 93 % of control
